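Cells were grown in 96-well plates and exposed to each compound for 48 hours at five concentrations; endpoints were interpolated linearly between bracketing concentrations, or set to the highest concentration if not reached. TGI denotes the concentration required for complete inhibition of growth.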
Experiments:
Assay in all cases: NCI anticancer screen, dose series, 48 h
A549 NSCLC = test system: A549 NSCLC
ACHN renal = test system: ACHN renal
CCRF-CEM leukemia = test system: CCRF-CEM leukemia
COLO 205 colon = test system: COLO 205 colon
DLD-1 colon = test system: DLD-1 colon
HCC-2998 colon = test system: HCC-2998 colon
HCT-116 colon = test system: HCT-116 colon
HL-60(TB) leukemia = test system: HL-60(TB) leukemia
HOP-62 NSCLC = test system: HOP-62 NSCLC
HOP-92 NSCLC = test system: HOP-92 NSCLC
HT29 colon = test system: HT29 colon
IGROV1 ovarian = test system: IGROV1 ovarian
K-562 leukemia = test system: K-562 leukemia
KM12 colon = test system: KM12 colon
LXFL 529 NSCLC = test system: LXFL 529 NSCLC
M19-MEL melanoma = test system: M19-MEL melanoma
MOLT-4 leukemia = test system: MOLT-4 leukemia
NCI-H226 lung = test system: NCI-H226 lung
NCI-H23 lung = test system: NCI-H23 lung
NCI-H460 lung = test system: NCI-H460 lung
NCI-H522 lung = test system: NCI-H522 lung
OVCAR-3 ovarian = test system: OVCAR-3 ovarian
OVCAR-8 ovarian = test system: OVCAR-8 ovarian
RPMI-8226 leukemia = test system: RPMI-8226 leukemia
SF-268 CNS = test system: SF-268 CNS
SF-295 CNS = test system: SF-295 CNS
SF-539 CNS = test system: SF-539 CNS
SK-MEL-28 melanoma = test system: SK-MEL-28 melanoma
SK-MEL-5 melanoma = test system: SK-MEL-5 melanoma
SK-OV-3 ovarian = test system: SK-OV-3 ovarian
SNB-19 CNS = test system: SNB-19 CNS
SR leukemia = test system: SR leukemia
SW-620 colon = test system: SW-620 colon
TK-10 renal = test system: TK-10 renal
U251 CNS = test system: U251 CNS
UACC-257 melanoma = test system: UACC-257 melanoma
UACC-62 melanoma = test system: UACC-62 melanoma
UO-31 renal = test system: UO-31 renal
786-0 renal = test system: 786-0 renal
A498 renal = test system: A498 renal
BT-549 breast = test system: BT-549 breast
CAKI-1 renal = test system: CAKI-1 renal
DU-145 prostate = test system: DU-145 prostate
EKVX NSCLC = test system: EKVX NSCLC
HCT-15 colon = test system: HCT-15 colon
HS 578T breast = test system: HS 578T breast
LOX IMVI melanoma = test system: LOX IMVI melanoma
M14 melanoma = test system: M14 melanoma
MALME-3M melanoma = test system: MALME-3M melanoma
MCF7 breast = test system: MCF7 breast
MDA-MB-231 breast = test system: MDA-MB-231 breast
MDA-MB-435 = test system: MDA-MB-435
MDA-N = test system: MDA-N
NCI/ADR-RES ovarian = test system: NCI/ADR-RES ovarian
OVCAR-4 ovarian = test system: OVCAR-4 ovarian
OVCAR-5 ovarian = test system: OVCAR-5 ovarian
PC-3 prostate = test system: PC-3 prostate
RXF 393 renal = test system: RXF 393 renal
SK-MEL-2 melanoma = test system: SK-MEL-2 melanoma
SN12C renal = test system: SN12C renal
SNB-75 CNS = test system: SNB-75 CNS
T-47D breast = test system: T-47D breast

CCOC(=O)/C(C#N)=C1/Sc2c(ncn(/N=C/c3ccc(OC)cc3)c2=O)N1c1ccccc1
TGI (A549 NSCLC): > 100 µM
TGI (ACHN renal): > 100 µM
TGI (CCRF-CEM leukemia): > 100 µM
TGI (COLO 205 colon): > 100 µM
TGI (DLD-1 colon): > 100 µM
TGI (HCC-2998 colon): > 100 µM
TGI (HCT-116 colon): > 100 µM
TGI (HL-60(TB) leukemia): > 100 µM
TGI (HOP-62 NSCLC): 62.3 µM
TGI (HOP-92 NSCLC): 59 µM
TGI (HT29 colon): > 100 µM
TGI (IGROV1 ovarian): > 100 µM
TGI (K-562 leukemia): > 100 µM
TGI (KM12 colon): > 100 µM
TGI (LXFL 529 NSCLC): > 100 µM
TGI (M19-MEL melanoma): > 100 µM
TGI (MOLT-4 leukemia): > 100 µM
TGI (NCI-H226 lung): > 100 µM
TGI (NCI-H23 lung): > 100 µM
TGI (NCI-H460 lung): > 100 µM
TGI (NCI-H522 lung): > 100 µM
TGI (OVCAR-3 ovarian): > 100 µM
TGI (OVCAR-8 ovarian): > 100 µM
TGI (RPMI-8226 leukemia): > 100 µM
TGI (SF-268 CNS): 77.7 µM
TGI (SF-295 CNS): 76.2 µM
TGI (SF-539 CNS): 34.8 µM
TGI (SK-MEL-28 melanoma): 81.5 µM
TGI (SK-MEL-5 melanoma): > 100 µM
TGI (SK-OV-3 ovarian): > 100 µM
TGI (SNB-19 CNS): > 100 µM
TGI (SR leukemia): > 100 µM
TGI (SW-620 colon): > 100 µM
TGI (TK-10 renal): > 100 µM
TGI (U251 CNS): > 100 µM
TGI (UACC-257 melanoma): > 100 µM
TGI (UACC-62 melanoma): > 100 µM
TGI (UO-31 renal): > 100 µM

COC(=O)/C=C(/C(=O)OC)c1cc2ccc3c([nH]c4ccccc43)c(C)c-2c1
TGI (786-0 renal): 20.1 µM
TGI (A498 renal): 23.5 µM
TGI (A549 NSCLC): > 100 µM
TGI (ACHN renal): > 100 µM
TGI (BT-549 breast): 23.1 µM
TGI (CAKI-1 renal): > 100 µM
TGI (CCRF-CEM leukemia): 10.8 µM
TGI (COLO 205 colon): 3.3 µM
TGI (DU-145 prostate): 42.2 µM
TGI (EKVX NSCLC): 24.2 µM
TGI (HCC-2998 colon): 13 µM
TGI (HCT-116 colon): 16.3 µM
TGI (HCT-15 colon): 29 µM
TGI (HL-60(TB) leukemia): 12.5 µM
TGI (HOP-62 NSCLC): 37.5 µM
TGI (HOP-92 NSCLC): 5.43 µM
TGI (HS 578T breast): 8.91 µM
TGI (HT29 colon): 8.9 µM
TGI (IGROV1 ovarian): 13.1 µM
TGI (K-562 leukemia): 7.09 µM
TGI (KM12 colon): 36.5 µM
TGI (LOX IMVI melanoma): 14.5 µM
TGI (M14 melanoma): 16 µM
TGI (MALME-3M melanoma): 19.6 µM
TGI (MCF7 breast): 13.3 µM
TGI (MDA-MB-231 breast): 15.1 µM
TGI (MDA-MB-435): 25.1 µM
TGI (MDA-N): 9.9 µM
TGI (MOLT-4 leukemia): 11.5 µM
TGI (NCI-H226 lung): 19.8 µM
TGI (NCI-H23 lung): 24.7 µM
TGI (NCI-H460 lung): 18.6 µM
TGI (NCI-H522 lung): 5.83 µM
TGI (NCI/ADR-RES ovarian): > 100 µM
TGI (OVCAR-3 ovarian): 12 µM
TGI (OVCAR-4 ovarian): 69.3 µM
TGI (OVCAR-5 ovarian): 13.6 µM
TGI (OVCAR-8 ovarian): 25.2 µM
TGI (PC-3 prostate): 14.2 µM
TGI (RPMI-8226 leukemia): 25.2 µM
TGI (RXF 393 renal): > 100 µM
TGI (SF-268 CNS): 21.4 µM
TGI (SF-295 CNS): 16.4 µM
TGI (SF-539 CNS): 31.5 µM
TGI (SK-MEL-2 melanoma): 26.8 µM
TGI (SK-MEL-28 melanoma): 30.2 µM
TGI (SK-MEL-5 melanoma): 9.18 µM
TGI (SK-OV-3 ovarian): 36.9 µM
TGI (SN12C renal): 27 µM
TGI (SNB-19 CNS): 23.2 µM
TGI (SNB-75 CNS): 59.2 µM
TGI (SR leukemia): 8.59 µM
TGI (SW-620 colon): 27.1 µM
TGI (T-47D breast): > 100 µM
TGI (TK-10 renal): > 100 µM
TGI (U251 CNS): 18.1 µM
TGI (UACC-257 melanoma): 28.2 µM
TGI (UACC-62 melanoma): 17.8 µM
TGI (UO-31 renal): 17.1 µM
